{"source": "paper PMC5218480", "about": "(PLoS ONE, 2017)", "system": "MV-4-11 cells", "experiment": "Gene expression microarray analysis (Affymetrix PrimeView) and GSEA", "assay_type": "cell-based, human", "design": "RFU PODN (11730768_x_at) / Fold change /veh PODN (11730768_x_at) / RFU LINC00158 (11744669_a_at) / Fold change /veh LINC00158 (11744669_a_at) / RFU DUSP10 (11751237_a_at) / Fold change /veh DUSP10 (11751237_a_at) / RFU ID3 (11757404_x_at) / Fold change /veh ID3 (11757404_x_at) / RFU PLEKHG5 (11737974_s_at) / Fold change /veh PLEKHG5 (11737974_s_at) / RFU LRRC4B (11730491_at) / Fold change /veh LRRC4B (11730491_at) / RFU GIMAP4 (11747438_a_at) / Fold change /veh GIMAP4 (11747438_a_at) / RFU KRT8 (11758183_x_at) / Fold change /veh KRT8 (11758183_x_at) / RFU CNN1 (11734310_a_at) / Fold change /veh CNN1 (11734310_a_at) / RFU VPS37D (11726825_at) / Fold change /veh VPS37D (11726825_at) / RFU C10orf10 (11716522_x_at) / Fold change /veh C10orf10 (11716522_x_at) / RFU KIR2DL2 /// KIR2DL4 /// KIR2DL5A /// KIR2DL5B /// KIR2DS1 /// KIR2DS2 /// KIR2DS3 /// KIR2DS4 /// KIR3DL3 /// KIR3DL3 /// KIR3DS1 (11738374_at) / Fold change /veh KIR2DL2 /// KIR2DL4 /// KIR2DL5A /// KIR2DL5B /// KIR2DS1 /// KIR2DS2 /// KIR2DS3 /// KIR2DS4 /// KIR3DL3 /// KIR3DL3 /// KIR3DS1 (11738374_at) / RFU C1QL1 (11718748_at) / Fold change /veh C1QL1 (11718748_at) / RFU TMPRSS4 (11747572_a_at) / Fold change /veh TMPRSS4 (11747572_a_at) / RFU HAMP (11756126_x_at) / Fold change /veh HAMP (11756126_x_at) / RFU RNFT2 (11725882_a_at) / Fold change /veh RNFT2 (11725882_a_at) / RFU NR4A2 (11747474_a_at) / Fold change /veh NR4A2 (11747474_a_at) / RFU ABCC12 (11746883_a_at) / Fold change /veh ABCC12 (11746883_a_at) / RFU TMEM136 (11760407_x_at) / Fold change /veh TMEM136 (11760407_x_at) / RFU CLDN22 /// WWC2 (11732394_at) / Fold change /veh CLDN22 /// WWC2 (11732394_at) / RFU HLA-DPB1 (11760878_x_at) / Fold change /veh HLA-DPB1 (11760878_x_at) / RFU SPINT1 (11716480_a_at) / Fold change /veh SPINT1 (11716480_a_at) / RFU GAP43 (11754022_s_at) / Fold change /veh GAP43 (11754022_s_at) / RFU A4GNT (11735810_at) / Fold change /veh A4GNT (11735810_at) / RFU PRB3 (11715151_x_at) / Fold change /veh PRB3 (11715151_x_at) / RFU TUBB4B (11761932_at) / Fold change /veh TUBB4B (11761932_at) / RFU CAPN14 (11732068_a_at) / Fold change /veh CAPN14 (11732068_a_at) / RFU TMCC2 (11721928_a_at) / Fold change /veh TMCC2 (11721928_a_at) / RFU IRGQ (11745062_a_at) / Fold change /veh IRGQ (11745062_a_at) / RFU FAM174B (11720279_a_at) / Fold change /veh FAM174B (11720279_a_at) / RFU TMPRSS4 (11748680_a_at) / Fold change /veh TMPRSS4 (11748680_a_at) / RFU FAM212B (11763350_a_at) / Fold change /veh FAM212B (11763350_a_at) / RFU PLEKHG5 (11743358_a_at) / Fold change /veh PLEKHG5 (11743358_a_at) / RFU ZSCAN30 (11745921_a_at) / Fold change /veh ZSCAN30 (11745921_a_at) / RFU CMKLR1 (11741424_a_at) / Fold change /veh CMKLR1 (11741424_a_at) / RFU LOC101060620 /// MAPK8IP1 (11723275_at) / Fold change /veh LOC101060620 /// MAPK8IP1 (11723275_at) / RFU SPTSSB (11747773_x_at) / Fold change /veh SPTSSB (11747773_x_at) / RFU PRSS12 (11739890_at) / Fold change /veh PRSS12 (11739890_at) / RFU BIN1 (11741810_x_at) / Fold change /veh BIN1 (11741810_x_at) / RFU WNT11 (11732464_a_at) / Fold change /veh WNT11 (11732464_a_at) / RFU C10orf10 (11716521_a_at) / Fold change /veh C10orf10 (11716521_a_at) / RFU C5orf56 (11738089_at) / Fold change /veh C5orf56 (11738089_at) / RFU CYB561 (11721691_x_at) / Fold change /veh CYB561 (11721691_x_at) / RFU ANKRD19P (11752326_a_at) / Fold change /veh ANKRD19P (11752326_a_at) / RFU OR2T12 /// OR2T33 /// OR2T8 (11738714_s_at) / Fold change /veh OR2T12 /// OR2T33 /// OR2T8 (11738714_s_at) / RFU VCAN (11748164_a_at) / Fold change /veh VCAN (11748164_a_at) / RFU JSRP1 (11732532_at) / Fold change /veh JSRP1 (11732532_at) / RFU KRTAP10-11 (11738290_x_at) / Fold change /veh KRTAP10-11 (11738290_x_at) / RFU MYO3A (11730013_a_at) / Fold change /veh MYO3A (11730013_a_at) / RFU EBF3 (11725865_a_at) / Fold change /veh EBF3 (11725865_a_at) / RFU CAMK2N1 (11719241_x_at) / Fold change /veh CAMK2N1 (11719241_x_at) / RFU C5orf56 (11738088_a_at) / Fold change /veh C5orf56 (11738088_a_at) / RFU OLFML3 (11715873_a_at) / Fold change /veh OLFML3 (11715873_a_at) / RFU LOC100653217 /// NTM (11731650_a_at) / Fold change /veh LOC100653217 /// NTM (11731650_a_at) / RFU MAPK11 (11762145_a_at) / Fold change /veh MAPK11 (11762145_a_at) / RFU FIZ1 (11724087_x_at) / Fold change /veh FIZ1 (11724087_x_at) / RFU OASL (11726364_x_at) / Fold change /veh OASL (11726364_x_at) / RFU SOX15 (11748057_x_at) / Fold change /veh SOX15 (11748057_x_at) / RFU CD79A (11719716_a_at) / Fold change /veh CD79A (11719716_a_at) / RFU HIST1H1D (11736915_at) / Fold change /veh HIST1H1D (11736915_at) / RFU CASKIN2 (11723855_a_at) / Fold change /veh CASKIN2 (11723855_a_at) / RFU LOC730098 (11760151_x_at) / Fold change /veh LOC730098 (11760151_x_at) / RFU OR4N2 (11742367_at) / Fold change /veh OR4N2 (11742367_at) / RFU PRRT2 (11749266_a_at) / Fold change /veh PRRT2 (11749266_a_at) / RFU SNX32 (11753110_a_at) / Fold change /veh SNX32 (11753110_a_at) / RFU CDHR5 (11726645_a_at) / Fold change /veh CDHR5 (11726645_a_at) / RFU RCAN1 (11760418_a_at) / Fold change /veh RCAN1 (11760418_a_at) / RFU FAM167A (11723789_a_at) / Fold change /veh FAM167A (11723789_a_at) / RFU FAM26E (11764081_at) / Fold change /veh FAM26E (11764081_at) / RFU ISYNA1 (11749810_s_at) / Fold change /veh ISYNA1 (11749810_s_at) / RFU ACY1 (11761880_at) / Fold change /veh ACY1 (11761880_at) / RFU 11764098_at / Fold change /veh 11764098_at / RFU SAMD14 (11745864_x_at) / Fold change /veh SAMD14 (11745864_x_at) / RFU NPB (11741838_a_at) / Fold change /veh NPB (11741838_a_at) / RFU TMPRSS6 (11731388_a_at) / Fold change /veh TMPRSS6 (11731388_a_at) / RFU KRTAP10-2 (11738614_at) / Fold change /veh KRTAP10-2 (11738614_at) / RFU ARHGAP8 /// PRR5-ARHGAP8 (11727945_x_at) / Fold change /veh ARHGAP8 /// PRR5-ARHGAP8 (11727945_x_at) / RFU KRTAP5-7 /// NADSYN1 (11734609_at) / Fold change /veh KRTAP5-7 /// NADSYN1 (11734609_at) / RFU RASL12 (11751679_a_at) / Fold change /veh RASL12 (11751679_a_at) / RFU CDKN2B (11736163_a_at) / Fold change /veh CDKN2B (11736163_a_at) / RFU PRF1 (11729649_at) / Fold change /veh PRF1 (11729649_at) / RFU, ZNF638 /// ZNF638-IT1 / Fold change vs veh, ZNF638 /// ZNF638-IT1 / RFU, PANK3 / Fold change vs veh, PANK3 / RFU, SH3YL1 / Fold change vs veh, SH3YL1 / RFU, ZEB2 / Fold change vs veh, ZEB2 / RFU, NRIP1 / Fold change vs veh, NRIP1 / RFU, PTTG1IP / Fold change vs veh, PTTG1IP / RFU, CAPN2 / Fold change vs veh, CAPN2 / RFU, MED14 / Fold change vs veh, MED14 / RFU, SNORA58 / Fold change vs veh, SNORA58 / RFU, C1orf63 / Fold change vs veh, C1orf63 / RFU, LRRFIP1 / Fold change vs veh, LRRFIP1 / RFU, NDUFAF7 / Fold change vs veh, NDUFAF7 / RFU, SLC12A2 / Fold change vs veh, SLC12A2 / RFU, IBTK / Fold change vs veh, IBTK / RFU, ESF1 / Fold change vs veh, ESF1 / Fold change vs veh, TMEM50B / RFU, TAOK1 / Fold change vs veh, TAOK1 / RFU, ACBD3 / Fold change vs veh, ACBD3 / RFU, TMA16 / Fold change vs veh, TMA16 / RFU, RWDD3 / Fold change vs veh, RWDD3 / RFU, BCAT1 / Fold change vs veh, BCAT1 / RFU, EDEM3 / Fold change vs veh, EDEM3 / RFU, TMEM33 / Fold change vs veh, TMEM33 / RFU, WDR75 / Fold change vs veh, WDR75 / RFU, AHCTF1 / Fold change vs veh, AHCTF1 / RFU, TFRC / Fold change vs veh, TFRC / RFU, ZDHHC17 / Fold change vs veh, ZDHHC17 / RFU, NOM1 / Fold change vs veh, NOM1 / RFU, ARL8B / Fold change vs veh, ARL8B / RFU, ZBTB11 / Fold change vs veh, ZBTB11 / RFU, TAMM41 / Fold change vs veh, TAMM41 / RFU, KIAA1704 /// LOC100996395 / Fold change vs veh, KIAA1704 /// LOC100996395 / RFU, ING1 / Fold change vs veh, ING1 / RFU, TRMT61B / Fold change vs veh, TRMT61B / RFU, FUBP3 / Fold change vs veh, FUBP3 / RFU, TP53 / Fold change vs veh, TP53 / RFU, TNKS2 / Fold change vs veh, TNKS2 / RFU, ZFP14 / Fold change vs veh, ZFP14 / RFU, ACTR2 / Fold change vs veh, ACTR2 / RFU, PPP3R1 / Fold change vs veh, PPP3R1 / RFU, PIK3R1 / Fold change vs veh, PIK3R1 / RFU, HNRNPA1 / Fold change vs veh, HNRNPA1 / RFU, RNF170 / Fold change vs veh, RNF170 / RFU, ZNF28 / Fold change vs veh, ZNF28 / RFU, RNGTT / Fold change vs veh, RNGTT / RFU, OGT / Fold change vs veh, OGT / RFU, BRD1 / Fold change vs veh, BRD1 / RFU, MARS / Fold change vs veh, MARS / RFU, ZNF655 / Fold change vs veh, ZNF655 / RFU, FAHD1 / Fold change vs veh, FAHD1 / RFU, BDP1 / Fold change vs veh, BDP1 / RFU, LRRCC1 / Fold change vs veh, LRRCC1 / RFU, ARID1A / Fold change vs veh, ARID1A / RFU, ZNF146 / Fold change vs veh, ZNF146 / RFU, ZNF330 / Fold change vs veh, ZNF330 / RFU, GPN3 / Fold change vs veh, GPN3 / RFU, C9orf123 / Fold change vs veh, C9orf123 / RFU, N4BP2L2 / Fold change vs veh, N4BP2L2 / RFU, ARFIP1 / Fold change vs veh, ARFIP1 / RFU, FAM179B / Fold change vs veh, FAM179B / RFU, BCL10 / Fold change vs veh, BCL10 / RFU, UHRF1BP1L / Fold change vs veh, UHRF1BP1L / RFU, BET1 / Fold change vs veh, BET1 / RFU, CNOT2 / Fold change vs veh, CNOT2 / RFU, ZNF268 / Fold change vs veh, ZNF268 / Fold change vs veh, ZNF507 / RFU, DGCR2 / Fold change vs veh, DGCR2 / RFU, WDSUB1 / Fold change vs veh, WDSUB1 / Fold change vs veh, HSP90B1 /// MIR3652 / RFU, ADSS / Fold change vs veh, ADSS / RFU, GK / Fold change vs veh, GK / RFU, ZNF148 / Fold change vs veh, ZNF148 / RFU, TAF9 / Fold change vs veh, TAF9 / RFU, SLC1A5 / Fold change vs veh, SLC1A5 / RFU, SLMO2 / Fold change vs veh, SLMO2 / RFU, ABCC4 / Fold change vs veh, ABCC4 / RFU, LOC101060439 /// RAP1B / Fold change vs veh, LOC101060439 /// RAP1B / RFU, RFX7 / Fold change vs veh, RFX7 / RFU, GTPBP10 / Fold change vs veh, GTPBP10 / RFU, CNEP1R1 / Fold change vs veh, CNEP1R1 / RFU, BIVM-ERCC5 /// ERCC5 / Fold change vs veh, BIVM-ERCC5 /// ERCC5 / RFU, ILF3 / Fold change vs veh, ILF3 / RFU 11762660_at / Fold change /veh 11762660_at / RFU VCAN (11757783_s_at) / Fold change /veh VCAN (11757783_s_at) / RFU DDX43 (11728927_at) / Fold change /veh DDX43 (11728927_at) / RFU KRT8 (11758188_x_at) / Fold change /veh KRT8 (11758188_x_at) / RFU NKD1 (11759106_at) / Fold change /veh NKD1 (11759106_at) / RFU SRD5A1 (11742802_a_at) / Fold change /veh SRD5A1 (11742802_a_at) / RFU TPSAB1 /// TPSB2 (11721975_s_at) / Fold change /veh TPSAB1 /// TPSB2 (11721975_s_at) / RFU GSTM3 (11746129_a_at) / Fold change /veh GSTM3 (11746129_a_at) / RFU IL23R (11737362_x_at) / Fold change /veh IL23R (11737362_x_at) / RFU TMEM51 (11727254_a_at) / Fold change /veh TMEM51 (11727254_a_at) / RFU PIWIL2 (11732686_x_at) / Fold change /veh PIWIL2 (11732686_x_at) / RFU ORM1 (11744905_x_at) / Fold change /veh ORM1 (11744905_x_at) / RFU CCDC152 (11743942_at) / Fold change /veh CCDC152 (11743942_at) / RFU ECM1 (11717891_a_at) / Fold change /veh ECM1 (11717891_a_at) / RFU IL23R (11748794_a_at) / Fold change /veh IL23R (11748794_a_at) / RFU TNFAIP8L3 (11732012_x_at) / Fold change /veh TNFAIP8L3 (11732012_x_at) / RFU MBOAT4 (11741988_at) / Fold change /veh MBOAT4 (11741988_at) / RFU 11764193_at / Fold change /veh 11764193_at / RFU TMEM53 (11763286_at) / Fold change /veh TMEM53 (11763286_at) / RFU MAGEB2 (11727129_at) / Fold change /veh MAGEB2 (11727129_at) / RFU TMEM200A (11744735_a_at) / Fold change /veh TMEM200A (11744735_a_at) / RFU CCDC152 (11751479_a_at) / Fold change /veh CCDC152 (11751479_a_at) / RFU FAM211A (11726209_a_at) / Fold change /veh FAM211A (11726209_a_at) / RFU RGS16 (11746705_a_at) / Fold change /veh RGS16 (11746705_a_at) / RFU VCAN (11755009_s_at) / Fold change /veh VCAN (11755009_s_at) / RFU RHOB (11743442_s_at) / Fold change /veh RHOB (11743442_s_at) / RFU RGS16 (11720943_a_at) / Fold change /veh RGS16 (11720943_a_at) / RFU RGS16 (11720944_at) / Fold change /veh RGS16 (11720944_at) / RFU, VPS4B / Fold change vs veh, VPS4B / RFU, CREB1 / Fold change vs veh, CREB1 / RFU, DNAJC13 / Fold change vs veh, DNAJC13 / RFU, GNAQ / Fold change vs veh, GNAQ / RFU, CDK5R1 / Fold change vs veh, CDK5R1 / RFU, ZRANB3 / Fold change vs veh, ZRANB3 / RFU, CUL4A / Fold change vs veh, CUL4A / RFU, CCNY / Fold change vs veh, CCNY / RFU, UFL1 / Fold change vs veh, UFL1 / RFU, COG3 / Fold change vs veh, COG3 / RFU, DIAPH2 / Fold change vs veh, DIAPH2 / RFU, SKA2 / Fold change vs veh, SKA2 / RFU, AFF3 / Fold change vs veh, AFF3 / RFU, LMF1 / Fold change vs veh, LMF1 / RFU, IPO11 / Fold change vs veh, IPO11 / RFU, DFFB / Fold change vs veh, DFFB / RFU, FOXP1 / Fold change vs veh, FOXP1 / RFU, CARD8 / Fold change vs veh, CARD8 / RFU, STRN3 / Fold change vs veh, STRN3 / RFU, ADK / Fold change vs veh, ADK / RFU, RASSF2 / Fold change vs veh, RASSF2 / RFU, WIPF1 / Fold change vs veh, WIPF1 / RFU, LARP1B / Fold change vs veh, LARP1B / RFU, RASA1 / Fold change vs veh, RASA1 / RFU, RB1 / Fold change vs veh, RB1 / RFU, PPFIA1 / Fold change vs veh, PPFIA1 / RFU, MAT2A / Fold change vs veh, MAT2A / RFU, CCT5 / Fold change vs veh, CCT5 / RFU, WDR92 / Fold change vs veh, WDR92 / RFU, CUX1 / Fold change vs veh, CUX1 / RFU, TTC7A / Fold change vs veh, TTC7A / RFU, TMEM135 / Fold change vs veh, TMEM135 / RFU, DEPTOR / Fold change vs veh, DEPTOR / RFU, CPM / Fold change vs veh, CPM / RFU, DNAJB6 / Fold change vs veh, DNAJB6 / RFU, CACNA2D3 / Fold change vs veh, CACNA2D3 / RFU, DTX4 / Fold change vs veh, DTX4 / RFU, TFCP2 / Fold change vs veh, TFCP2 / RFU, GMCL1 /// GMCL1P1 / Fold change vs veh, GMCL1 /// GMCL1P1 / RFU, AEBP2 / Fold change vs veh, AEBP2 / RFU, SNHG1 /// SNORD22 /// SNORD25 /// SNORD26 /// SNORD27 /// SNORD28 /// SNORD29 /// SNORD31 / Fold change vs veh, SNHG1 /// SNORD22 /// SNORD25 /// SNORD26 /// SNORD27 /// SNORD28 /// SNORD29 /// SNORD31 / Fold change (Aza/veh), C12orf56 (ProbeSet 11735607_a_at) / Fold change (ACY-1035/veh), C12orf56 (ProbeSet 11735607_a_at) / Fold change (Aza/veh), FGFR1OP (ProbeSet 11751329_s_at) / Fold change (ACY-1035/veh), FGFR1OP (ProbeSet 11751329_s_at) / Fold change (Aza/veh), VPS36 (ProbeSet 11739960_a_at) / Fold change (ACY-1035/veh), VPS36 (ProbeSet 11739960_a_at) / RFU SYPL1 (11715823_x_at) / Fold change /veh SYPL1 (11715823_x_at) / RFU IGFBP7 (11715501_s_at) / Fold change /veh IGFBP7 (11715501_s_at) / RFU REEP3 (11722064_at) / Fold change /veh REEP3 (11722064_at) / RFU IGLL1 (11728026_x_at) / Fold change /veh IGLL1 (11728026_x_at): dose or concentration left out as unconfirmed", "settings": "ProbeSet 11728271_at; LIST B"}
{"smiles": "Nc1ncn([C@@H]2O[C@H](CO)[C@@H](O)[C@H]2O)c(=O)n1", "note": "[azacitidine]", "values": [{"measurement": "RFU, ZNF330", "result": 711.81, "unit": "RFU"}]}
